Test results published in patent publication US4052455A, “Styrylamidines” (Mead Johnson & Company, priority 1975, dated 1977).
Structures can show the parent of a compound that is named as a salt.

Key:
mouse electroshock = assay: Mouse electroshock test of Swinyard (anticonvulsant); type: in vivo
From the text: Aside from antithrombogenic and analgesic effects, compounds of Formula I wherein R1 and R2 substituents are halogen (particularly chlorine), R3 is hydrogen or methyl and A is selected from the group consisting of lower alkyl of from 1 to 8 carbon atoms inclusive or cycloalkyl of from 3 to 6 carbon atoms inclusive, are useful as anticonvulsant, hypotensive and antihypertensive agents. […] For example, N-(2,6-dichlorostyryl)acetamidine in the mouse electroshock test of E. A. Swinyard, J. Amer. Pharm.

blood pressure [1] = assay: Blood pressure and heart rate in anesthetized normotensive dog; type: in vivo
Description: (§1) For instance, at 1.0 mg./kg. body weight, this compound provides a 33% reduction in blood pressure while at 10.0 mg./kg. body weight, a 64% reduction in blood pressure is obtained. In the same test procedure, the prior art cinnamylamidine, N-(4-chlorocinnamyl)acetamidine, provided a 12% increase in blood pressure with a 6% decrease in heart rate at a dose of 1.0 mg./kg. body weight. At a dose of 10.0 mg./kg. body weight, the prior art cinnamylamidine provides an increase of 26% in blood pressure.

blood pressure [2] = assay: Blood pressure in spontaneous hypertensive rat; type: in vivo
Description: as §1

urine output = assay: Lipschitz diuretic test; type: in vivo
From the text: N-(2,6-dichlorostyryl)acetamidine is orally effective as a diuretic agent according to the W. L. Lipschitz, et al., J. Pharmacol. Expt.

[3] = as reported in U.S. Pat. No. 3,413,345; cited from earlier work
platelet aggregation = assay: Born/O'Brien nephelometric platelet aggregation test in platelet rich plasma (ADP or collagen induced); type: cell-based; conditions: human or rabbit platelet rich plasma, 50% or more reduction, read-out: Concentration at which collagen or adenosine diphosphate induced platelet aggregation is reduced by 50% or more
Description: (§2) Measurement of the antithrombogenic activity of the compounds of Formula I is carried out by standard pharmacological tests essentially described by Born, Nature, 194, 927 (1962) and O'Brien, J. Clin. Path., 15, 446 (1962). This test comprises a nephelometric method is which the change in turbidity of a specimen of platelet rich plasma (human or rabbit) is measured on causation of platelet aggregation by addition of a thrombogenic inducing agent such as adenosine diphosphate or collagen. The compounds of the present invention are effective antithrombogenic agents according to this test at concentrations in the order of about 0.5 to 90 mcg./0.5 ml. platelet rich plasma. In the intact animal, the antithrombogenic effect is readily observed by applying the above test to blood samples withdrawn prior to and after administration of a compound of the present invention.

[4] = system: blood platelet aggregation; assay: Oral administration to rabbits; inhibition of blood platelet aggregation induced by ADP or collagen in platelet rich plasma (Example 56); type: in vivo; conditions: rabbit, oral single dose 25 mg./kg.; for % Inhibition of Blood Platelet Aggregation Induced by ADP: ADP 0.25-1.0 microgram; for % Inhibition of Blood Platelet Aggregation Induced by Collagen: lowest amount of collagen giving maximal aggregation
Description: as §2
The styrylamidine is orally administered to each rabbit in a group of 2-6 rabbits at a single dose of 25 mg./kg. body weight. A 8 ml. portion of blood is drawn just prior to dosing in order to obtain a control value and at various time periods thereafter. Platelet rich plasma is prepared from each blood sample by centrifugation at 200 times gravity for 10 min. at room temperature. Samples (0.5 ml.) of platelet rich plasma are tested for their ability to aggregate with either collagen or adenosine-5'-diphosphate added as specified in the modification of Born and O'Brien method which has been fully described hereinbefore. The results shown below indicate the inhibition of blood platelet aggregation induced by the lowest amount of collagen giving maximal aggregation or 0.25-1.0 microgram adenosine-5'-diphosphate for representative amidines.

[5] = system: phenylquinone writhing syndrome; assay: Phenylquinone writhing test (analgesic activity); type: in vivo; conditions: mice
Description: In this test, groups of 10-20 mice are injected subcutaneously or orally with different doses of the test compound. At predetermined time intervals, the mice receive 2.5 mg./kg. phenylquinone intraperitoneally. The total number of writhing episodes is counted for each mouse for 10 min. and the average percent decrease in writhing recorded for each dose.
The novel styrylsulfonylamidines of Formula V in addition to being useful as precursors to the styrylamidine products of Formula I have analgesic utility as measured in the foregoing phenylquinone writhing test. A preferred class of styrylsulfonylamidines of Formula V having particularly significant analgesic activity are those wherein R1 and R2 are each hydrogen, nitro or halogen and A is phenyl or lower alkyl of from 1 to 8 carbon atoms inclusive. Analgesic activity at the time interval indicated following administration of compounds representative of this class are given in Table I below.

CNS = CNS effects after oral or intraperitoneal administration to the mouse; type: in vivo
Description: 5,6-Dihydro-4-methyl-5-(4-nitrophenyl)-3-phenyl-4H-1,2,4-thiadiazine 1,1-dioxide was not effective in preventing the phenylquinone writhing syndrome in mice at an oral dose of 100 mg./kg. body weight or subcutaneous dose of 6 mg./kg. body weight.

[6] = subcutaneous 6 mg./kg., time interval 30 min.

For CC(=N)NCC=Cc1ccc(Cl)cc1 [N-(4-chlorocinnamyl)acetamidine, reference compound], the “Activity in mouse electroshock test” value (mouse electroshock; 250 mg./kg. body weight) was “completely inactive”, the “Decrease in heart rate” value (blood pressure [1]; 1.0 mg./kg.) was 6% and the “Increase in blood pressure” value (blood pressure [1]; 1.0 mg./kg.) was 12%. The “Increase in blood pressure” value (blood pressure [1]; 10.0 mg./kg.) was 26%, the “Antihypertensive effect” value (blood pressure [2]; 50 mg./kg.) was “devoid of antihypertensive effects” and the “Change in blood pressure” value (blood pressure [2]; 50 mg./kg.) was “slight increase in blood pressure”. For the same compound, the “Diuretic activity” value (urine output; oral dose 30 mg./kg. body weight) was “essentially inactive” and the “Hypotensive effect” value [3] was “hypotensive effects which are quick in onset and of considerable duration”.

With CC(=N)N/C=C/c1ccc(Cl)c(Cl)c1 [N-(3,4-DICHLOROSTYRYL)ACETAMIDINE HYDROCHLORIDE] the IC50 (platelet aggregation) was < 30 µg/mL, the “% Inhibition of Blood Platelet Aggregation Induced by ADP” value (shortened to “% Inhibition … by ADP”) ([4]; 1 hr.) was 50% and the “% Inhibition … by ADP” value ([4]; 2 hrs.) was 52%. The “% Inhibition … by ADP” value ([4]; 4 hrs.) was 67%, the “% Inhibition … by ADP” value ([4]; 6 hrs.) was 55% and the “% Inhibition … by ADP” value ([4]; 24 hrs.) was 0%. For the same compound, the “% Inhibition of Blood Platelet Aggregation Induced by Collagen” value (“% Inhibition … by Collagen” for short) ([4]; 1 hr.) was 67%, the “% Inhibition … by Collagen” value ([4]; 2 hrs.) was 50% and the “% Inhibition … by Collagen” value ([4]; 4 hrs.) was 85%. For the same compound, the “% Inhibition … by Collagen” value ([4]; 6 hrs.) was 55% and the “% Inhibition … by Collagen” value ([4]; 24 hrs.) was 0%.

For CC(=N)NS(=O)(=O)C=Cc1ccc([N+](=O)[O-])cc1 [N-(4-nitrostyrylsulfonyl)-acetamidine, N-(4-NITROSTYRYLSULFONYL)ACETAMIDINE], the “Analgesic activity, Percent Inhibition” value ([5]; subcutaneous 6 mg./kg., time interval 60 min.) was 36%.

For CC(=N)NS(=O)(=O)C=Cc1ccccc1 [N-(styrylsulfonyl)acetamidine, N-(STYRYLSULFONYL)ACETAMIDINE], the “Analgesic activity, Percent Inhibition” value ([5]; subcutaneous 6 mg./kg., time interval 15 min.) was 38%.

With N=C(NS(=O)(=O)C=Cc1ccccc1)c1ccccc1 [N-(styrylsulfonyl)benzamidine, N-(STYRYLSULFONYL)BENZAMIDINE] the “Analgesic activity, Percent Inhibition” value ([5]; oral 100 mg./kg., time interval 60 min.) was 26% and the “Analgesic activity, Percent Inhibition” value [5, 6] was 36%.

With CC(=N)N/C=C/c1c(Cl)cccc1Cl [N-(2,6-dichlorostyryl)acetamidine] the ED50 (mouse electroshock; oral) was 44 mg/kg, the “Reduction in blood pressure” value (blood pressure [1]; intravenous 1.0 mg./kg.) was 33% and the “Reduction in blood pressure” value (blood pressure [1]; intravenous 10.0 mg./kg.) was 64%. The “Reduction in blood pressure” value (blood pressure [1]; intravenous 0.01 to 10 mg./kg.) was “dose related reduction in blood pressure”, the “Reduction of blood pressure” value (blood pressure [2]; oral 5 to 50.0 mg./kg.) was “substantial reduction of blood pressure” and the “Urine output” value (urine output; oral, 12.5 mg./kg. body weight) was “doubled the urine output”.

With N=C(N/C=C/c1ccccc1)c1ccccc1 [N-styrylbenzamidine hydrochloride, N-STYRYLBENZAMIDINE HYDROCHLORIDE] the IC50 (platelet aggregation) was < 30 µg/mL.

For N=C(N/C=C/c1ccc(Cl)c(Cl)c1)C1CC1 [N-(3,4-dichlorostyryl)cyclopropanecarboxamidine], the IC50 (platelet aggregation) was < 30 µg/mL.

For CN1C(c2ccccc2)=NS(=O)(=O)CC1c1ccc([N+](=O)[O-])cc1 (stereo not drawn) [5,6-dihydro-4-methyl-5-(4-nitrophenyl)-3-phenyl-4H-1,2,4-thiadiazine 1,1-dioxide], the “Prevention of the phenylquinone writhing syndrome” value ([5]; oral dose 100 mg./kg. body weight) was “not effective”, the “Prevention of the phenylquinone writhing syndrome” value ([5]; subcutaneous dose 6 mg./kg. body weight) was “not effective” and the “CNS effect” value (CNS) was “non-specific CNS depression”.

For CC(=N)NS(=O)(=O)C=Cc1ccc(Cl)c(Cl)c1 [N-[(3,4-DICHLOROSTYRYL)SULFONYL]ACETAMIDINE], the “Analgesic activity, Percent Inhibition” value ([5]; oral 100 mg./kg., time interval 120 min.) was 36% and the “Analgesic activity, Percent Inhibition” value [5, 6] was 28%.
